For one assay, the target named is T1, ΔSHP2^K325A (Homo sapiens, UniProt Q06124, K325A).
T1 construct: His‐ΔSHP2, encompassing the peptide from amino acids 205–593 retaining PTP activity; His; made in house; host or cells: E. coli BL21
Put plainly: PTP activity assay of K325A mutant. The class given is biochemical. As for the experimental part: Catalytic activity screening methods for PTPs using candidate compounds were performed as previously described.^[ [77] ^] In brief, soluble fusion PTP proteins, His‐ΔSHP2, encompassing the peptide from amino acids 205–593 retaining PTP activity, His‐ΔSHP2^K325A, His‐ΔSHP1, encompassing the peptide from amino acids 202–595 retaining PTP activity, His‐PTP1B, His‐HePTP, His‐VHR, and His‐TCPTP were cloned, expressed, and purified in E. coli. After determining protein concentration using bicinchoninic acid (BCA) assay kit, 1 µg fusion protein, 10 µM library compound were added in 100 µL reaction mixture (55 mM 4‐(2‐hydroxyethyl)‐1‐piperazineethanesulfonic acid [HEPES], 100 mM sodium chloride [NaCl], 0.5 mM ethylenediaminetetraacetic acid [EDTA], 1 mM dithiothreitol [DTT], 0.01% Triton X‐100, 0.002% bovine serum albumin [BSA], and 0.1% dimethyl sulfoxide [DMSO]) and incubated at 37 °C for 30 min in the dark, with Na3VO4 as positive control. The detection substrate DiFMUP (50 µM) was promptly added to each reaction and functioned at 37 °C for 30 min in the dark. The fluorescence intensity was then measured using Multimode Plate Reader (λa = 358 nm, λe = 455 nm, PerkinElmer, USA).
A single‐point mutation assay of the pET32a‐ΔSHP2 plasmid was performed using the QuickMutation Site‐Directed Mutagenesis Kit (Beyotime, Shanghai, China). […]

The target in a further assay is T2, SHP2 in NCI‐H2122 cells (Homo sapiens, UniProt Q06124).
T2 construct: endogenous in cells; host or cells: NCI-H2122
Put plainly: Intracellular SHP2 activity (IP and DiFMUP). The class given is cell-based. As for the experimental part: To test intracellular SHP2 activity, the extract of NCI‐H2122 cells was precleared with protein A/G agarose beads and incubated with anti‐SHP2 antibody overnight at 4 °C, followed by further incubation with protein A/G agarose beads for 2 h at 4 °C. The Iimmunoprecipitates were suspended in sample buffer and detected in 96‐well black polystyrene plates using the fluorescent substrate DiFMUP under the same conditions as described above.

Another assay deals with T3, XIAP (Homo sapiens, UniProt P98170).
T3 construct: endogenous in cells; host or cells: NCI-H2122
Put plainly: Cellular thermal shift assay (CETSA). The class given is binding. Particulars: 56 and 62 ℃. As for the experimental part:
NCI‐H2122 cells were harvested and resuspended with pre‐cooled PBS containing 1% cocktail, which was then frozen in liquid nitrogen for 5 min and thawed in a water bath at 37 °C for 5 min for three repetitions. The supernatant was collected via centrifugation at 4 °C (15 000 × g, 20 min), divided into two equal portions; one was added with test drugs or various concentrations of embelin, and the other was added with DMSO as control and subsequently incubated at 25 °C for 30 min. All samples were heated at temperatures ranging from 52–70 °C for 3 min, and subsequently in an ice bath for 3 min and collected by centrifugation at 4 °C (15 000 × g, 20 min), and added with protein sampling buffer at 100 °C for 5 min, followed by analysis of protein stability using western blotting.

The next assay deals with A549 and NCI‐H2122 cells. Briefly: Cell proliferation in monolayer culture (CCK-8). In kind it is cell-based, human. As for the experimental part:
For the adherent cell viability assay, cells in the logarithmic growth phase were seeded in 96-well culture plates at a density of 5×103 well-1 and incubated overnight. Diluted compounds or DMSO were added, or specific treatments were incubated at 37 °C and 5% CO2 for 24 h or 48 h. Cell viability was determined using CCK-8 or CellLightTM Cell Viability Assay Kit, according to the manufacturer's protocol. The luminescence signals of the treated samples were normalized to those of the DMSO group. […]
Figure S7. Targeting SHP2 and XIAP produces a synthetic lethal effect. (A) Effects of NSC-87877 on cell viability of A549 and NCI-H2122 cells after 24 and 48 h were determined using the CCK-8. Bars, ± SEM. The curves were plotted using a variable slope (four-parameter) non-linear fit. (B, E, F, and I) Effects of Na3VO4 (B), birinapant (E), BV-6 (F), and LCL161 (I) on cell viability of human NCI-H2122 cells at 48 h were determined using the CCK-8. *p < 0.05, **p < 0.01 and ***p < 0.001 compared to control group (unpaired two-tailed Student’s t-test).(C, G) Effects of SHP099 (C) and GDC-0152 (G) on cell viability after 24 and 48 h were determined using the CCK-8. Bars, ± SEM. The curves were plotted using a variable slope (four-parameter) non-linear fit.(D, H) Effects of SHP099 (D) and GDC-0152 (H) on cell viability were determined after 48 h using intracellular ATP chemiluminescence. **p < 0.01 and ***p < 0.001 compared to control group (unpaired two-tailed Student’s t-test).(J) Effects of SHP099 and GDC-0152 separately and in combination, and the effect of embelin for 24 h on the cell viability were assessed using intracellular ATP […]
tailed Student’s t-test).(K) Effects of SHP099 and GDC-0152 separately and in combination with […] on the cell viability of human KRAS-WT and -mutant cells were assessed using a colony formation assay. (L, M) A549 and NCI-H2122 cells were instantaneously transfected with siPTPN11 and siXIAP separately and together for 24 h under

Molecules are shown by their SMILES.

T1 sequence (Q06124 205-593 K325A): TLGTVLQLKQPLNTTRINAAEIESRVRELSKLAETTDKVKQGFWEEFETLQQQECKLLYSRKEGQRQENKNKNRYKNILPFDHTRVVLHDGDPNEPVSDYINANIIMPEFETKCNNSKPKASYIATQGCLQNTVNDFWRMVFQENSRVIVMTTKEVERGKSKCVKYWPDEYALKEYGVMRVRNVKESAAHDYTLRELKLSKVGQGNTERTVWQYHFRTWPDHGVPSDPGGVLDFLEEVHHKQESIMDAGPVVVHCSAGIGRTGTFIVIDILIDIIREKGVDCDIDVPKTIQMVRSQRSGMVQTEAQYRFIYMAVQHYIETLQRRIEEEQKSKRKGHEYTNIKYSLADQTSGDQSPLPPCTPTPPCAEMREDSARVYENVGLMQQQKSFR
T2 sequence (Q06124 whole entry): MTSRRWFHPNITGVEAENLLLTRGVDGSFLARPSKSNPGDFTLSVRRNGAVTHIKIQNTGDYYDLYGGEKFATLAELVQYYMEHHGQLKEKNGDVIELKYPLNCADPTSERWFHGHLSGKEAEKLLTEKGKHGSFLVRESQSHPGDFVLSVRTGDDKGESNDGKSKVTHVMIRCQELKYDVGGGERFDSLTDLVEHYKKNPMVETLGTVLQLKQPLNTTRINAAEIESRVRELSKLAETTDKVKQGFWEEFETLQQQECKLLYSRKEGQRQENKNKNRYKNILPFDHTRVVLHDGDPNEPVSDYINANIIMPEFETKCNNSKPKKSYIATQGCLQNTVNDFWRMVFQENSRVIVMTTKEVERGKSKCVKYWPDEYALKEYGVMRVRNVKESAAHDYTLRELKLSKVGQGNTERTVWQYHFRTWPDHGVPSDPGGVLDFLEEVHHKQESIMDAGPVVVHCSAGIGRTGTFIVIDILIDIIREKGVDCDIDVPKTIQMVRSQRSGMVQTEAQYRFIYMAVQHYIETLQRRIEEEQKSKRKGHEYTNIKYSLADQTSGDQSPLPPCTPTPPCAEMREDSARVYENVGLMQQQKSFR
T3 sequence (P98170 whole entry): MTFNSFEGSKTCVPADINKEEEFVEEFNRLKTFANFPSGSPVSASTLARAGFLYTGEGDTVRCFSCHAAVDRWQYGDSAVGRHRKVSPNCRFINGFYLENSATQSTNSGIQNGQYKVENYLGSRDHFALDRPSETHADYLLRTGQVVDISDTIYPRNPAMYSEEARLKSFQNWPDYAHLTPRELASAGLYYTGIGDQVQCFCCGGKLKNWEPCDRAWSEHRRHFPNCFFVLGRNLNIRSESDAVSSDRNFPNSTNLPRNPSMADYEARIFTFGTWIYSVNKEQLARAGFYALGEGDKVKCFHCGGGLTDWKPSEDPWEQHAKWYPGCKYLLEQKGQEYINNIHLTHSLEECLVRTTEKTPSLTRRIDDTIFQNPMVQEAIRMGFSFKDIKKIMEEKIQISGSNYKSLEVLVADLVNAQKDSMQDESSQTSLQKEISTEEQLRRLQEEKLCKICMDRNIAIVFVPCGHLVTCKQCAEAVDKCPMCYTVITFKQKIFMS

With `CCCCCCCCCCCC1=C(O)C(=O)C=C(O)C1=O` [Embelin], the “inhibitory effect on activity of ΔSHP2^K325A versus wild-type ΔSHP2” value against ΔSHP2^K325A was “notably diminished the inhibitory effect”. The “effect on intracellular SHP2 activity” value at SHP2 in NCI‐H2122 cells was “significantly inhibited”.

`CC1(N)CCN(c2cnc(-c3cccc(Cl)c3Cl)c(N)n2)CC1` [SHP099]: the “effect on XIAP protein stability (CETSA)” value at XIAP is reported as “did not affect XIAP protein stability”. The “effect on cell proliferation in monolayer cell culture mode” value in the assay on A549 and NCI‐H2122 cells is recorded as “almost no effect”.

Source of the values: publication PMC12005787, “Synthetic Lethality of SHP2 and XIAP Suppresses Proliferation and Metastasis in KRAS‐mutant Nonsmall Cell Lung Cancer” (Advanced Science, 2025).
